For data set [1], the system named is MCF7. The experiment in a line: Antiproliferative activity against human MCF7 cells. Format: functional, cell-based.
Data set [2] can be described thus: Selectivity index, ratio of IC50 for cytotoxicity in HEK293 cells assessed as reduction in cell viability incubated for 48 hrs by MTT assay to IC50 for antiproliferative activity against human HeLa cells incubated for 48 hrs by MTT assay. The class given is toxicity, cell-based. To be noted: read-out: Ratio IC50. (Tetrazolium dyes change colour on reduction, which living cells bring about.)

For data set [3], the system named is B16-F10. The experiment in a line: Antiproliferative activity against mouse B16F10 cells incubated for 48 hrs by MTT assay. Format: functional, cell-based. To be noted: B16-F10, 48 h.
The test system of data set [4] is HeLa. The experiment in a line: Antiproliferative activity against human HeLa cells incubated for 48 hrs by MTT assay. Format: functional, cell-based.
Data set [5] concerns B16-F10. The experiment in a line: Induction of apoptosis in mouse B16F10 cells assessed as early apoptosis cells level at 7 uM incubated for 48 hrs by Annexin V-FITC and PI staining based flow cytometry (reference value: 0.03 +/- 0.013%). Format: functional. (In general: Flow cytometry measures light scatter and fluorescence of single cells or particles in a stream.)
The test system of data set [6] is B16-F10. The data set can be described thus: Induction of apoptosis in mouse B16F10 cells assessed as late apoptosis cells level at 7 uM incubated for 48 hrs by Annexin V-FITC and PI staining based flow cytometry (reference value: 0.02 +/- 0.21%). The class given is functional.
Data set [7] relates to HeLa. The data set can be described thus: Antiproliferative activity against human HeLa cells at 10 to 100 uM incubated for 48 hrs by MTT assay. Format: functional, cell-based.
The nature of data set [8]: Selectivity index, ratio of IC50 for cytotoxicity in HEK293 cells assessed as reduction in cell viability incubated for 48 hrs by MTT assay to IC50 for antiproliferative activity against mouse B16F10 cells incubated for 48 hrs by MTT assay. The class given is toxicity, cell-based. To be noted: read-out: Ratio IC50.
Data set [9] deals with A549. The data set can be described thus: Antiproliferative activity against human A549 cells at 10 to 100 uM incubated for 48 hrs by MTT assay. Format: functional, cell-based.
Data set [10] can be described thus: Selectivity index, ratio of IC50 for cytotoxicity in HEK293 cells assessed as reduction in cell viability incubated for 48 hrs by MTT assay to IC50 for antiproliferative activity against human A549 cells incubated for 48 hrs by MTT assay. Format: toxicity, cell-based. Conditions: read-out: Ratio IC50.
Data set [11] has as its system HEK293. The data set can be described thus: Cytotoxicity in HEK293 cells assessed as reduction in cel viability incubated for 48 hrs by MTT assay. The class given is cell-based. To be noted: Homo sapiens, HEK293, 48 h.
Data set [12] relates to A549. The experiment in a line: Antiproliferative activity against human A549 cells incubated for 48 hrs by MTT assay. Conditions: A549, 48 h. The class given is functional, cell-based.
The test system of data set [13] is B16-F10. The experiment in a line: Antiproliferative activity against mouse B16F10 cells at 10 to 100 uM incubated for 48 hrs by MTT assay. The class given is functional, cell-based.

pIC50: −log10 of the molar value. Active and inactive are the calls of the source. No cut-off for these calls is given here.

The pIC50 is −log10 of the IC50, conventionally taken in molar units. `COc1ccccc1[Se]c1c(-c2ccccc2)nc2ccc(F)cn12`: the pIC50 in [1] is 4.90.
Consider `COc1ccc(-c2cn3cc(C4=CCN(C(=O)C(C)(C)C)CC4)ccc3n2)cc1OC`, for which the selectivity ratio at 48 h in data set [2], in data set [8] and in data set [10] was 10 to 14 throughout. The negative logarithm of the IC50 (pIC50) was 5.15 in data set [3], 5.26 in [4], 4.18 in data set [11] and 5.36 in [12]. The Activity worked out at 25.4% in [5] and 57.3% in [6]. The result in data set [7], in data set [9] and in data set [13] was Active.
As for `COc1ccc(-c2cn3cc(C4=CCN(C(=O)C5CCCCC5)CC4)ccc3n2)cc1OC`, the selectivity ratio at 48 h in data set [2], in data set [8] and in data set [10] was 10 to 14 in each case. Moreover, the pIC50 in data set [3] was 4.96; in data set [4] it was 5.09; in data set [11] it was 4.14; in data set [12], 5.14. Moreover, the result in data set [7], in data set [9] and in data set [13] was Active.
With `COc1ccc(-c2cn3cc(C4=CCN(S(=O)(=O)C5CCCC5)CC4)ccc3n2)cc1OC`, the selectivity ratio at 48 h in [2], in data set [8] and in data set [10] was 10 to 14 in each case. For the same compound, the pIC50 is 5.11 in data set [3], 5.19 in data set [4], 3.99 in data set [11] and 5.19 in [12]. In addition, the Activity in data set [5] is 35.4%; in data set [6], 55.6%. The outcome in data set [7], in data set [9] and in [13] was Active.
On to `COc1ccc(-c2cn3cc(C4=CCN(S(=O)(=O)C5CCCCC5)CC4)ccc3n2)cc1OC`, for which the selectivity ratio at 48 h in [2], in data set [8] and in data set [10] was 10 to 14 each time. For the same compound, the pIC50 in [3] is 4.96; in [4], 5.00; in data set [11], 4.13; in data set [12] it was 5.35. Moreover, the result in data set [7], in data set [9] and in data set [13] was Active.
As for `COc1ccc(-c2cn3cc(C4=CCN(S(=O)(=O)c5ccccc5)CC4)ccc3n2)cc1OC`, the selectivity ratio at 48 h in data set [2], in data set [8] and in data set [10] was 10 to 14 each time. In addition, the pIC50 in data set [3] is 4.88; in data set [4], 4.90; in data set [11], 4.18; in data set [12] it was 5.12. The result in data set [7], in data set [9] and in [13] was Active.
